In brackets after ≈: the same amount, converted by molar mass. Structures can show the parent of a compound that is named as a salt. Where two headings read alike, the source gives them in different places. Marks after values point to notes of the source that are not given here.
Legend:
S. pneumoniae J24 = assay: Antibacterial activity (MIC), standard method of the Japan Society of Chemotherapy; format: cell-based; conditions: Streptococcus pneumoniae
Experimental: (§1) The antimicrobial activities of the compounds of the present invention were determined according to a standard method designated by the Japan Society of Chemotherapy. The results are expressed by MIC (μg/mL) (Table 1). In Table 1, S. aureus 870307 and S. pneumonia J24 are quinolone-resistant bacteria.

S. marcescens 10100 = assay: as above; format: cell-based; conditions: Serratia marcescens
Experimental: as §1

S. epidermidis 56500 = assay: as above; format: cell-based; conditions: Staphylococcus epidermidis
Experimental: as §1

S. flexneri 2A 5503 = assay: as above; format: cell-based; conditions: Shigella flexneri, 2A5503, read-out: MIC
Experimental: as §1

P. aeruginosa 32104 = assay: as above; format: cell-based; conditions: Pseudomonas aeruginosa
Experimental: as §1

E. faevcalis ATCC 19433 = assay: as above; format: cell-based
Experimental: as §1

P. Vulgalis 08601 = assay: as above; format: cell-based
Experimental: as §1

S. aureus FDA 209P = assay: as above; format: cell-based; conditions: Staphylococcus aureus, FDA209P
Experimental: as §1

E. coli NIHJ = assay: as above; format: cell-based; conditions: Escherichia coli
Experimental: as §1

S. aureus 870307 = assay: as above; format: cell-based; conditions: Staphylococcus aureus
Experimental: as §1

S. pyogenes G-36 = assay: as above; format: cell-based; conditions: Streptococcus pyogenes, G36
Experimental: as §1

P. aeruginosa 32121 = assay: as above; format: cell-based; conditions: Pseudomonas aeruginosa
Experimental: as §1

S. maltophilia IID 1275 = assay: as above; format: cell-based; conditions: Stenotrophomonas maltophilia, IID1275
Experimental: as §1

K. pneumoniae TYPE I = assay: as above; format: cell-based; conditions: Klebsiella pneumoniae
Experimental: as §1

Slc:ddY male mice = assay: Effect of inducing convulsion, intracisternal administration to mice; format: in vivo; conditions: i.cist., Probit method
Experimental: The compounds (Compound Nos. 1, 2, and 3) of the present invention and Comparative Compounds A and B were individually dissolved in 5% glucose, to thereby prepare several samples to be tested. Groups of six-week-old Slc:ddY male mice (body weight: 23.9 to 27.4 g), each group consisting of 6 mice, were employed in the test. Each of the above-prepared samples was administered intracisternally to each mouse belonging to each group at concentrations shown in Tables 2 and 3 (5 μL/mouse). During 30 minutes after administration, it was observed whether each mouse suffered convulsion or died in an individual cage. Administration was performed according to the method described by Ueda, et al. (Reference 1).
Reference 1: Ueda H, Amano H, Shiomi H, Takagi H: Comparison of the analgesic effects of various opioid peptides by a newly devised intracisternal injection technique in conscious mice. Eur J Pharmacol. 1979; 56: 265-8.
Significant difference test between groups was performed in terms of incidence of convulsion according to the Fisher's direct probability calculation method (one-sided test, level of significance: P<0.05). On the basis of percentile incidence of convulsion, CD50 (50% concentration for inducing convulsion) and 95% confidence limit were calculated by the Probit method.

[1] = system: Chinese hamster lung (CHL/IU) cells; assay: Effect of inducing chromosomal aberration; format: cell-based; conditions: for Percentile induction of structural aberration (TA %): 24 hours, CHL/IU cells; for Significant increase in number of the cells exhibiting chromosomal aberration: at a concentration of up to 100 μg/mL
Experimental: From each sample solution, samples to be tested having a concentration of 1, 3, 10, 30, 50, and 100 μg/mL (as reduced to free form) were prepared. As a negative control, 0.1 mol/L NaOH was employed.
Chinese hamster lung (CHL/IU) cells in logarithmic growth phase were employed. The cells were treated in a culture solution containing each sample to be tested for 24 hours. Subsequently, a chromosome specimen was prepared from the thus-treated cells. The culture solution employed was an Eagle's MEM (product of NISSUI PHARMACEUTICAL CO., LTD.) medium containing 15% fetal bovine serum (15% FBS-MEM).
In each sample concentration, 100 cells during metaphase were observed, to thereby record types and numbers of the chromosomal aberration.

[2] = S. pneumoniae J24, quinolone-resistant, read-out: MIC
[3] = S. marcescens 10100, read-out: MIC
[4] = S. epidermidis 56500, read-out: MIC
[5] = P. aeruginosa 32104, read-out: MIC
[6] = E. faevcalis ATCC 19433, read-out: MIC
[7] = P. Vulgalis 08601, read-out: MIC
[8] = S. aureus FDA 209P, read-out: MIC
[9] = S. aureus 870307, quinolone-resistant, read-out: MIC
[10] = S. pyogenes G-36, read-out: MIC
[11] = P. aeruginosa 32121, read-out: MIC
[12] = S. maltophilia IID 1275, read-out: MIC
[13] = K. pneumoniae TYPE I, read-out: MIC

Compound | MIC (S. pneumoniae J24; J24) | MIC (S. marcescens 10100; 10100) | MIC (S. epidermidis 56500; 56500) | MIC (S. flexneri 2A 5503) | MIC (P. aeruginosa 32104; 32104) | MIC (E. faevcalis ATCC 19433) | MIC (P. Vulgalis 08601) | MIC (S. aureus FDA 209P) | MIC (E. coli NIHJ) | MIC (S. aureus 870307; 870307) | MIC (S. pyogenes G-36) | MIC (P. aeruginosa 32121; 32121) | MIC (S. maltophilia IID 1275) | MIC (K. pneumoniae TYPE I) | CD50 (50% concentration for inducing convulsion), with 95% confidence limit (Slc:ddY male mice) | MIC (S. pneumoniae J24; [2]) | MIC (S. marcescens 10100; [3]) | MIC (S. epidermidis 56500; [4]) | MIC (P. aeruginosa 32104; [5]) | MIC (E. faevcalis ATCC 19433; [6]) | further results
COc1c(N2C[C@@H](N)[C@@H](C)C2)c(F)cc2c(=O)c(C(=O)O)cn([C@@H]3C[C@@H]3F)c12 [Comparative Compound A, 7-[(3S,4S)-3-Amino-4-methylpyrrolidin-1-yl]-6-fluoro-1-[(1R,2S)-2-fluorocyclopropyl]-1,4-dihydro-8-methoxy-4-oxoquinoline-3-carboxylic acid-hydrochloride, reference compound] | 0.025 mg/L | 0.05 mg/L | 0.05 mg/L | 0.006 mg/L | 0.1 mg/L | 0.1 mg/L | 0.006 mg/L | 0.012 mg/L | 0.006 mg/L | 0.39 mg/L | 0.05 mg/L | 0.05 mg/L | 0.1 mg/L | 0.05 mg/L | 12.7 (7.7-24.9)^a) μg/5 μL/mouse |  |  |  |  |  | 
C[C@H]1CN(c2c(F)cc3c(=O)c(C(=O)O)cn4c3c2OC[C@@H]4C)C[C@H]1N [Comparative Compound B, (3S)-10-[(3S,4S)-3-Amino-4-methylpyrrolidin-1-yl]-9-fluoro-2,3-dihydro-3-methyl-7-oxo-7H-pyrido[1,2,3-de][1,4]benzoxazine-6-carboxylic acid-hydrochloride, reference compound] | 0.1 mg/L | 0.05 mg/L | 0.1 mg/L | 0.012 mg/L | 0.1 mg/L | 0.2 mg/L | 0.006 mg/L | 0.012 mg/L | 0.012 mg/L | 3.13 mg/L | 0.1 mg/L | 0.025 mg/L | 0.39 mg/L | 0.05 mg/L | 28.6 (16.8-48.5)^a) μg/5 μL/mouse |  |  |  |  |  | 
CC[C@H]1CN(c2c(F)cc3c(=O)c(C(=O)O)cn([C@@H]4C[C@@H]4F)c3c2OC)C[C@H]1N [Compound No. 1, 7-[(3S,4S)-3-Amino-4-ethylpyrrolidin-1-yl]-6-fluoro-1-[(1R,2S)-2-fluorocyclopropyl]-8-methoxy-1,4-dihydro-4-oxoquinoline-3-carboxylic acid] |  |  |  | 0.006 mg/L (≈ 0.0147 µM) |  |  |  |  |  |  |  |  |  |  | 49.2^b) μg/5 μL/mouse | 0.025 mg/L (≈ 0.0614 µM) | 0.1 mg/L (≈ 0.245 µM) | 0.05 mg/L (≈ 0.123 µM) | 0.2 mg/L (≈ 0.491 µM) | 0.1 mg/L (≈ 0.245 µM) | MIC (P. Vulgalis 08601; [7]): 0.012 mg/L (≈ 0.0295 µM); MIC (S. aureus FDA 209P; [8]): 0.006 mg/L (≈ 0.0147 µM); MIC (E. coli NIHJ; E. coli NIHJ, read-out: MIC): 0.006 mg/L (≈ 0.0147 µM); MIC (S. aureus 870307; [9]): 0.2 mg/L (≈ 0.491 µM); MIC (S. pyogenes G-36; [10]): 0.05 mg/L (≈ 0.123 µM); MIC (P. aeruginosa 32121; [11]): 0.1 mg/L (≈ 0.245 µM); MIC (S. maltophilia IID 1275; [12]): 0.05 mg/L (≈ 0.123 µM); MIC (K. pneumoniae TYPE I; [13]): 0.025 mg/L (≈ 0.0614 µM); Percentile induction of structural aberration (TA %) ([1]; 1 μg/mL): 0%; Percentile induction of structural aberration (TA %) ([1]; 3 μg/mL): 1%; Percentile induction of structural aberration (TA %) ([1]; 10 μg/mL): 2%; Percentile induction of structural aberration (TA %) ([1]; 30 μg/mL): 3%; Percentile induction of structural aberration (TA %) ([1]; 50 μg/mL): 2%; Percentile induction of structural aberration (TA %) ([1]; 100 μg/mL): 7%; Significant increase in number of the cells exhibiting chromosomal aberration [1]: not observed
CC[C@H]1CN(c2c(F)cc3c(=O)c(C(=O)O)cn4c3c2OC[C@@H]4C)C[C@H]1N [Compound No. 3, (3S)-10-[(3S,4S)-3-Amino-4-ethylpyrrolidin-1-yl]-9-fluoro-2,3-dihydro-3-methyl-7-oxo-7H-pyrido[1,2,3-de][1,4]benzoxazine-6-carboxylic acid] |  |  |  | 0.006 mg/L (≈ 0.016 µM) |  |  |  |  |  |  |  |  |  |  | 64.5 (47.7-80.8) μg/5 μL/mouse | 0.1 mg/L (≈ 0.266 µM) | 0.025 mg/L (≈ 0.0666 µM) | 0.05 mg/L (≈ 0.133 µM) | 0.1 mg/L (≈ 0.266 µM) | 0.1 mg/L (≈ 0.266 µM) | MIC (P. Vulgalis 08601; [7]): 0.006 mg/L (≈ 0.016 µM); MIC (S. aureus FDA 209P; [8]): 0.012 mg/L (≈ 0.032 µM); MIC (E. coli NIHJ; E. coli NIHJ, read-out: MIC): 0.006 mg/L (≈ 0.016 µM); MIC (S. aureus 870307; [9]): 0.78 mg/L (≈ 2.08 µM); MIC (S. pyogenes G-36; [10]): 0.1 mg/L (≈ 0.266 µM); MIC (P. aeruginosa 32121; [11]): 0.05 mg/L (≈ 0.133 µM); MIC (S. maltophilia IID 1275; [12]): 0.2 mg/L (≈ 0.533 µM); MIC (K. pneumoniae TYPE I; [13]): 0.05 mg/L (≈ 0.133 µM); Percentile induction of structural aberration (TA %) ([1]; 1 μg/mL): 3%; Percentile induction of structural aberration (TA %) ([1]; 3 μg/mL): 0%; Percentile induction of structural aberration (TA %) ([1]; 10 μg/mL): 2%; Percentile induction of structural aberration (TA %) ([1]; 30 μg/mL): 1%; Percentile induction of structural aberration (TA %) ([1]; 50 μg/mL): 5%; Percentile induction of structural aberration (TA %) ([1]; 100 μg/mL): 9%; Significant increase in number of the cells exhibiting chromosomal aberration [1]: not observed

From patent publication US7977327B2, “Substituted pyrrolidine derivative” (Daiichi Sankyo Company, Limited, priority 2004, dated 2011)
